Laboratory results published in US20200277246A1, “TREATMENT METHOD, COMPOUNDS, AND METHOD OF INCREASING TRPV2 ACTIVITY” (THE FEINSTEIN INSTITUTE FOR MEDICAL RESEARCH, priority 2015, published 2020).
Where “and” joins values, the source holds several entries; their conditions need not be identical. Equal values may be shown once.

Legend:
[1] = system: DBA1/J mice with collagen-induced arthritis; test: Collagen induced arthritis (CIA); format: in vivo, mouse
Source text: CIA was induced in 8-week-old male DBA1/J mice (Jackson Laboratories) using a standard protocol (Courtenay et al., “Immunisation Against Heterologous Type II Collagen Induces Arthritis in Mice,” Nature 283 (5748):666-668 (1980); Nagler-Anderson et al., “Suppression of Type II Collagen-Induced Arthritis by Intragastric Administration of Soluble Type II Collagen,” Proc. Natl. Acad. Sci. U.S.A. 83 (19):7443-7446 (1986), which are hereby incorporated by reference in their entirety). Briefly, bovine type II collagen (Chondrex, Redmond, Wash.) was dissolved overnight in acetic acid 0.1 N and then homogenized at 1:1 with Complete Freund's Adjuvant (CFA, Difco, Detroit, Mich.). Anesthetized mice were injected intradermally with 100 μg of type II collagen emulsified in CFA in the tail. The new Trpv2 agonist LER13 (10 mg/Kg) or control vehicle (PBS 50%, PEG300 40%, PG 5%, PS80 5%) was started on day 10 (D10) and administered intra-peritoneally every-other-day (from D10 until day 55). On day 21 (D21), mice received a booster injection of 100 μg of type II collagen in incomplete Freund's adjuvant. Clinical signs of arthritis were evident on day 24 (D24).
Arthritis severity in CIA mice was scored using a modified scoring system based on Jirholt et al., “Genetic Linkage Analysis of Collagen-Induced Arthritis in the Mouse,” Eur. J. Immunol. 28 (10):3321-3328 (1998), which is hereby incorporated by reference in its entirety. Briefly, the modified scoring system ranged from 0-16 per mouse per day and included a functional component of disease severity (non-weight bearing) in the maximum score of 4 per paw. The arthritis severity index (ASI), which is the sum of all scores obtained during the observation period, was used to compare treatment groups as it provides a comprehensive assessment of arthritis severity over time, and correlates with histologic damage (Brenner et al., “The Non-MHC Quantitative Trait Locus Cia10 Contains a Major Arthritis Gene and Regulates Disease Severity, Pannus Formation and Joint Damage,” Arthritis Rheum. 52 (1):322-332 (2005); Brenner et al., “The Non-MHC Quantitative Trait Locus Cia5 Contains Three Major Arthritis Genes that Differentially Regulate Disease Severity, Pannus Formation, and Joint Damage in Collagen- and Pristane-Induced Arthritis,” J. Immunol. 174 (12):7894-7903 (2005), which are hereby incorporated by reference in their entirety).

MMP-2 = test: IL-1β-induced MMP-2 expression (qPCR) in RA FLS; format: cell-based, human; conditions: IL-1β 10 ng/ml 48 hours, 10 μM, n=6 RA
Description: The qPCR conditions used have been previously described (Laragione et al., “Cia5d Regulates a New Fibroblast-Like Synoviocyte Invasion-Associated Gene Expression Signature,” Arthritis Res. Ther. 10 (4):R92 (2008), which is hereby incorporated by reference in its entirety). Briefly, total RNA (200 ng) from each sample was reverse transcribed using Superscript III (Invitrogen). MMP-2 (forward-[…] (SEQ ID NO: 1); reverse-GGTATCCATCGCCATGCT (SEQ ID NO: 2) and MMP-3 (forward-CCAGGTGTGGAGTTCCTGA (SEQ ID NO: 3); reverse-[…] (SEQ ID NO: 4)) primers were designed based on the Universal ProbeLibrary (Roche, Indianapolis, Ind.). Reactions were prepared with Absolute Blue qPCR Mix (Thermo Fisher, Waltham, Mass.), and run in duplicate on a LightCycler 480 thermocycler (Roche) using Relative Quantitative Software (Roche). Ct (threshold cycle) values were adjusted for GAPDH in each sample (ΔCt). Fold differences were calculated with the 2^−ΔΔCt method (Livak et al., “Analysis of Relative Gene Expression Data Using Real-Time Quantitative PCR and the 2(-Delta Delta C(T)) Method,” Methods 25 (4):402-408 (2001), which is hereby incorporated by reference in its entirety).

FLS = test: MTT assay; format: cell-based; conditions: 24 hours, concentrations of the invasion studies
Description: 4×10^4 FLS per well were plated in triplicate in 96-well plates in 100 μl of complete media. Cells were allowed to adhere for 24 hours. Media was then changed and O1821, LER13, or vehicle was added at the same concentrations used for the invasion studies. After 24 hours (same duration of the invasion experiments) viable cells were determined by the colorimetric MTT kit (Millipore) according to the manufacturer's instructions.

[2] = 10 mg/Kg IP every-other-day from D10, scoring to D76

SMILES	Maximum arthritis severity score per mouse, mean±SD ([1]; 10 mg/Kg IP every-other-day)	Reduction of maximum arthritis severity scores per mouse vs vehicle ([1]; 10 mg/Kg IP every-other-day)	Arthritis severity index (ASI), mean±S.D. [1, 2]	Reduction in mean cumulative arthritis scores vs vehicle [1, 2]	Arthritis severity (CIA) ([1]; collagen-induced arthritis)	Number of joints with the maximum score ([1]; day 63)	Number of joints with the maximum score ([1]; day 70)	Decrease of IL-1β-induced MMP-2 expression (MMP-2)	Toxicity to FLS (cell mortality) (FLS)
C#Cc1cc(O)c(C2C=C(C)CCC2C(=C)C)c(O)c1C1C=C(C)CCC1C(=C)C [Compound 13, (1R,2″R,2R,2″S)-6′-ethynyl-5,5″-dimethyl-2,2″-di(prop-1-en-2-yl)-1,1″,2,2″,3,3″,4,4″-octahydro-[1,1′:3′,1″-terphenyl]-2′,4′-diol]	7±4.2	~50% and 50%	40.7±36.8	50%	Protective in CIA	5	1		
C=C(C)[C@@H]1CCC(C)=C[C@H]1c1c(O)cc(C)cc1O [Compound O1821]								45.6% and 50%	not toxic
